Entries after “also recorded” stand apart in the source; their conditions may differ.
Experiments:
[1] = test system: cultured adult rat thoracic DRG neurons; assay: CGRP release assay in cultured DRG neurons; type: cell-based
Description: Cell Culture. Primary cultures of rat DRG neurons were prepared from male adult Sprague Dawley rats (200-250 gm). Following enzymatic treatment and dissociation, neurons were spun through a percoll cushion (Hofbauer et al. 1998) and were plated at a density of 10,000-20,000 neurons/well of a 48 well tissue culture plate. Cultures were maintained in DME+10% FCS supplemented with penicillin/streptomycin, 150 μM uridine and 50 μM 5-fluoro-2-deoxyuridine (Nguyen et al. 1999). NGF (murine, recombinant, 2.5S; Promega, Madison, Wis.) was used at 50 ng/ml. Neurons were treated for five days before release experiments or Calcium-imaging studies were performed.
CGRP release assay. Immunoreactive calcitonin gene-related peptide (IR-CGRP) release from DRG cultures was performed as described by Hingtgen et al. (1995). Briefly, neuron cultures were washed with Release Buffer (RB) (25 mM Hepes, pH 7.4, 135 mM NaCl, 3.5 mM KCl, 2.5 mM CaCl2, 1 mM MgCl2, 3.3 mM Glucose, 0.1% BSA, 1 μM phosphoamidon), and were incubated for 10 min at 37° C. in RB plus 0.1% ethanol (Capsaicin vehicle) to measure basal CGRP release. Fresh RB containing the appropriate concentration of activating peptide (AcPep) or control peptide (CoPep) was added for an additional 10 minutes. Peptide treatment was followed by a 10 minute incubation with an appropriate dose of Capsaicin or KCl. IR-CGRP released by neurons was measured by ELISA. Activating peptide and control peptide were prepared by standard solid phase synthesis procedures by the UTMB Core Protein Facility.
CGRP Quantification. CGRP was quantified in a standard sandwich ELISA. In brief, 96-well “U” bottom microtiter ELISA plates (Dynex, Chantilly, Va.) were coated with affinity purified polyclonal rabbit antibody to rat CGRP (Peninsula Labs, Belmont, Calif.) at 3 μg/ml in 0.125M borate buffered saline (pH 8.1) (100 μl/well). The plates were incubated overnight at 37° C. The next day, the plates were washed three times with saline containing 0.05% Tween-20. Purified rat CGRP (Peninsula Labs) was used at a previously standardized concentration range of 25-1 ng/ml in a four-fold dilution to generate a standard curve. An equal volume of the sample was added in duplicate to a seventy-five μl/well of Tween-PBS (pH 7.1) and the plates were incubated for two hours on a shaker at room temperature. The plates were washed 3 times with Tween-PBS and 100 μl/well (0.2 mg/ml; 1:500 dilution) of in-house biotinylated, rabbit anti rat CGRP IgG (Peninsula Labs) was applied and incubated for two hours at room temperature. After three washes 150 μl of 1:1000 diluted streptavidine-horseradish peroxidase conjugate (Zymed, San Fransisco, Calif.) was added to each well and the plates were incubated for 90 min at room temperature. One-hundred-fifty μl/well of the substrate ortho-phenylene diamine dihydrochloride (Sigma Chemicals, St. Louis, Mo.) 0.4 mg/ml in citrate buffer (pH 4.9) was added after plates were washed three more times. Forty μl/100 ml of 30% H2O2 was added fresh to the citrate buffer just before adding to the wells to activate the coloring reaction. The reaction was stopped with 5N H2SO4 (50 μl/well) and the plates were read at 490 nm in an automated ELISA reader (Bio-Tek Instruments, Inc., Winooski, VE). The OD values were plotted against the CGRP standard curve and CGRP immunoreactivity was quantified using the appropriate formula and expressed as nanogram/ml.
Statistics. Release data are presented as the mean± standard error of the mean (SEM) of wells from three separate experiments. To compare the effects of activating peptide and control peptide on subsequent evoked release, an overall test based on the analysis of variance was performed (ANOVA). […] Intraductal injection studies were analyzed using a repeated measure ANOVA and individual means were compared using a Newman-Keuls multiple comparison test. Significance levels were set at p<0.05. […]

PAR-2 [2] = target: T1, PAR-2 (Homo sapiens, UniProt P55085); conditions: Blackhart et al. 1996; cited from earlier work
T1 sequence (P55085 26-397): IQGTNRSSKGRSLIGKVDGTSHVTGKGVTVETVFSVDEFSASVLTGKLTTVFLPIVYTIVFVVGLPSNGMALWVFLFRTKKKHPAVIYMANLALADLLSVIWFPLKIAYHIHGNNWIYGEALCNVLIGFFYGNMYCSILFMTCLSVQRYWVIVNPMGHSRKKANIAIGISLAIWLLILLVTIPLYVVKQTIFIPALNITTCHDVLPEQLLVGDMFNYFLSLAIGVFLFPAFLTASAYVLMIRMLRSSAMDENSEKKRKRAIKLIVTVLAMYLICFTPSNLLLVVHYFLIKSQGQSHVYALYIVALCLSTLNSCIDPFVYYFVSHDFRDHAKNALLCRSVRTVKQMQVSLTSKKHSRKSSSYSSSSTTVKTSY

PAR-2 [3] = target: T2, PAR-2 (Rattus norvegicus, UniProt Q63645); assay: Intracellular Ca2+ response of primary neuronal cultures; type: cell-based; conditions: primary neuronal cultures of adult rat DRGs
T2 construct: assessing the response of primary neuronal cultures to trypsin and AcPep; endogenous in cells; host or cells: primary cultures of adult Sprague-Dawley rat DRG neurons
T2 sequence (Q63645 26-397): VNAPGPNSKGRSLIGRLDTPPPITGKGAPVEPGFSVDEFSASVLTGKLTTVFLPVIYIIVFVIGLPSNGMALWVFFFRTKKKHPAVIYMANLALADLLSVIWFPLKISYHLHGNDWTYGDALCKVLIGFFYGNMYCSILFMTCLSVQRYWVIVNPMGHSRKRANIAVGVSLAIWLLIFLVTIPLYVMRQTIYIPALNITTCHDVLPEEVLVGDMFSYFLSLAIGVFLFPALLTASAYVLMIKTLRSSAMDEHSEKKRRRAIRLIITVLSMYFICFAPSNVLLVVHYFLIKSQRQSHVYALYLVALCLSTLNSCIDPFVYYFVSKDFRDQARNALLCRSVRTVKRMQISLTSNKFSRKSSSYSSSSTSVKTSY
Source text: In the results which follow, it is shown that activated proteases can have direct effects on sensory neurons, mediated by specific receptors. PAR-1 and PAR-2 are present in rat DRGs (Young et al. 2000). The presence of one of these receptors, PAR-2, in sensory neurons is first confirmed by finding evidence of mRNA and protein expression in adult rat thoracic DRGs. The functional implications of PAR-2 expression are then examined by assessing the response of primary neuronal cultures to trypsin and AcPep. Both agonists increased intracellular Ca^2+ confirming previously reported findings that a functional PAR 2 receptor is present in adult rat DRGs (Steinhoff et al. 2000). Trypsin stimulates both PAR-1 and PAR-2 and therefore an increase in intracellular Ca^2+ can be caused by activation of the two different receptors. […] Therefore the increased intracellular Ca^2+ response to AcPep reflects specific PAR-2 mediated activation.
Cell Culture. Primary cultures of rat DRG neurons were prepared from male adult Sprague Dawley rats (200-250 gm). Following enzymatic treatment and dissociation, neurons were spun through a percoll cushion (Hofbauer et al. 1998) and were plated at a density of 10,000-20,000 neurons/well of a 48 well tissue culture plate. […]

Substance: SLIGRL (PEPTIDE (1)..(6) PAR-2 activating peptide; listed as Rattus sp.) [AcPep]
- CGRP release induced by Capsaicin (50 nM) ([1]; 10 min pretreatment with peptide 10 μM, then Capsaicin 50 nM for 10 min in presence of peptide, mean of wells, three experiments): 7.3 ng/mL
- CGRP release induced by KCl (70 mM) ([1]; 10 min pretreatment with peptide 10 μM, then KCl 70 mM for 10 min in presence of peptide, mean of wells, three experiments): 2.7 ng/mL
- CGRP release by peptide alone (basal release) ([1]; peptide 10 μM alone, 10 minute incubation): did not significantly increase CGRP release; also recorded: does not induce CGRP release; also recorded: no effect on basal CGRP release
- KCl evoked IR-CGRP release, in words, versus CoPep ([1]; pre-treatment 10 μM for 10 minutes, KCl 70 mM): significantly higher increase; also recorded: significantly enhances
- Capsaicin-evoked CGRP release, in words, versus CoPep ([1]; pretreatment 10 μM for 10 minutes, Capsaicin 50 nM): significant increase; also recorded: significantly enhances
- activation of PAR-2 (PAR-2 [2]): only activates PAR-2
- intracellular Ca2+ (PAR-2 [3]): increased
